≈ marks a conversion by molar mass, not a printed value. Calls of active or inactive are those of the source. The calls are words filed in the database; no cut-off is given here.
What was measured:
Staphylococcus aureus [1] = assay: In vivo antibacterial activity against Staphylococcus aureus MTCC-96 infected in Balb/c mouse assessed as hepatocyte distribution at 156.5 microM/Kg, iv for 7 days by hematoxylin and eosin staining based microscopic analysis; format: functional, organism-based; details: time 7.0 day
Lipid bilayer [2] = assay: (§1) Induction of ionophore activity across EYPC:CHOL (8:2) large unilamellar vesicles assessed as transmembrane cation transport by measuring decrease in fluorescence intensity for HPTS dye preincubated for 3 mins followed by CsCl addition and mesured after 7.5 mins by HPTS dye based fluorescence spectrophotometric analysis; details: time 10.5 min
Staphylococcus aureus [3] = assay: In vivo antibacterial activity against Staphylococcus aureus MTCC-96 infected in Balb/c mouse assessed as bacterial load by measuring CFU in liver at 156.5 microM/Kg, iv for 7 days by CFU assay (Rvb= 719 CFU); format: functional; details: time 7 day
A549 = assay: Cytotoxicity against human A549 cells assessed as reduction in cell viability at 1 to 100 uM incubated for 44 hrs by MTT assay; format: toxicity, cell-based; details: a549, 44 h, dose 1-100 µM
Lipid bilayer [4] = assay: as §1, with “KCl” for “CsCl”; details: time 10.5 min
Lipid bilayer [5] = assay: as §1, with “RbCl” for “CsCl”; details: time 10.5 min
Lipid bilayer [6] = assay: (§2) Induction of ionophore activity across EYPC:CHOL (8:2) large unilamellar vesicles assessed as transmembrane Zn2+ ion transport by measuring fluorescence intensity for CFZ dye at 10 uM preincubated for 3 mins followed by ZnCl2 addition and mesured after 7.5 mins by CFZ dye based fluorescence spectrophotometric analysis; details: filed as opener, time 10.5 min
Staphylococcus aureus [7] = assay: In vivo antibacterial activity against Staphylococcus aureus MTCC-96 infected in Balb/c mouse assessed as uniform distribution of hepatocytes in liver tissue at 156.5 microM/Kg, iv for 7 days by hematoxylin and eosin staining based microscopic analysis; format: functional, organism-based; details: time 7.0 day
Staphylococcus aureus [8] = assay: In vivo antibacterial activity against Staphylococcus aureus MTCC-96 infected in Balb/c mouse assessed as less dilated portal vein in liver at 156.5 microM/Kg, iv for 7 days by hematoxylin and eosin staining based microscopic analysis; format: functional, organism-based; details: time 7.0 day
Staphylococcus aureus [9] = assay: In vivo antibacterial activity against Staphylococcus aureus MTCC-96 infected in Balb/c mouse assessed as less dilated hepatic artery at 156.5 microM/Kg, iv for 7 days by hematoxylin and eosin staining based microscopic analysis; format: functional, organism-based; details: time 7.0 day
Lipid bilayer [10] = assay: as §1, with “Zn2+ ion” for “cation”, “ZnCl2” for “CsCl”
Staphylococcus aureus [11] = assay: Antibacterial activity against Staphylococcus aureus MTCC-96 assessed as reduction in bacterial growth incubated for 14 to 16 hrs in presence of EGTA by microbroth dilution method; format: functional; details: time 14-16 hrs
Staphylococcus aureus [12] = assay: Induction of intracellular ROS generation in Staphylococcus aureus MTCC-96 assessed as change in fluorescence intensity at 1 uM incubated for 30 mins in presence of Zn2+ ions by DCF-DA staining based fluorescence spectroscopic analysis; format: functional, organism-based
Staphylococcus aureus [13] = assay: Antibacterial activity against gentamicin-and methicillin-resistant Staphylococcus aureus ATCC 33592 assessed as reduction in bacterial growth incubated for 14 to 16 hrs by microbroth dilution method; format: functional; details: time 14-16 hrs
Lipid bilayer [14] = assay: as §1, with “anion” for “cation”, “Zn(NO3)2” for “CsCl”; details: filed as opener; time 10.5 min
Staphylococcus aureus [15] = assay: Antibacterial activity against Staphylococcus aureus MTCC-96 assessed as reduction in bacterial growth incubated for 14 to 16 hrs in presence of 400 uM ZnCl2 by microbroth dilution method; format: functional; details: time 14-16 hrs
MCF-10A = assay: Cytotoxicity against human MCF-10A cells assessed as reduction in cell viability at 1 to 100 uM incubated for 44 hrs by MTT assay; format: toxicity, cell-based; details: dose 1-100 µM
Staphylococcus aureus [16] = assay: In vivo antibacterial activity against Staphylococcus aureus MTCC-96 infected in Balb/c mouse assessed as reduction in bacterial load by measuring CFU in liver at 31.6 microM/Kg, iv for 7 days in presence of ZnCl2 by CFU assay; format: functional, organism-based; details: time 7.0 day
Lipid bilayer [17] = assay: as §2, with “measuring decrease in” for “measuring”, “HPTS” for “CFZ”; details: filed as opener, time 10.5 min
HCT-116 = assay: Cytotoxicity against human HCT-116 cells assessed as reduction in cell viability at 1 to 100 uM incubated for 44 hrs by MTT assay; format: toxicity, cell-based; details: hct-116, 44 h, dose 1-100 µM
Staphylococcus aureus [18] = assay: In vivo antibacterial activity against Staphylococcus aureus MTCC-96 infected in Balb/c mouse assessed as normal architecture of bile duct in liver tissue at 31.6 microM/Kg, iv for 7 days in presence of ZnCl2 by hematoxylin and eosin staining based microscopic analysis; format: functional, organism-based; details: time 7.0 day
Lipid bilayer [19] = assay: as §1, with “LiCl” for “CsCl”; details: time 10.5 min
MDA-MB-231 = assay: Cytotoxicity against human MDA-MB-231 cells assessed as reduction in cell viability at 1 to 100 uM incubated for 44 hrs by MTT assay; format: toxicity, cell-based; details: mda-mb-231, 44 h, dose 1-100 µM
Lipid bilayer [20] = assay: Induction of ionophore activity across EYPC:CHOL (8:2) large unilamellar vesicles assessed as transmembrane Zn2+ ion transport by measuring decrease in fluorescence intensity for HPTS dye at 10 uM preincubated for 3 mins in presence of FCCP followed by ZnCl2 addition and mesured after 7.5 mins by HPTS dye based fluorescence spectrophotometric analysis; details: filed as opener, time 10.5 min
Staphylococcus aureus [21] = assay: Antibacterial activity against gentamicin-and methicillin-resistant Staphylococcus aureus ATCC 33592 assessed as reduction in bacterial growth incubated for 14 to 16 hrs in presence of 400 uM ZnCl2 by microbroth dilution method; format: functional; details: time 14-16 hrs
Staphylococcus aureus [22] = assay: In vivo antibacterial activity against Staphylococcus aureus MTCC-96 infected in Balb/c mouse assessed as liver central vein with minimum infiltration at 156.5 microM/Kg, iv for 7 days by hematoxylin and eosin staining based microscopic analysis; format: functional, organism-based; details: time 7.0 day
Staphylococcus aureus [23] = assay: Antibacterial activity against Staphylococcus aureus MTCC-96 assessed as reduction in bacterial growth incubated for 14 to 16 hrs in presence of 100 to 400 uM MnCl2 by microbroth dilution method; format: functional, organism-based; details: time 14-16 hrs
Staphylococcus aureus [24] = assay: Antibacterial activity against Staphylococcus aureus MTCC-96 assessed as reduction in bacterial growth incubated for 14 to 16 hrs in presence of 100 to 400 uM ZnBr2 by microbroth dilution method; format: functional, organism-based; details: time 14-16 hrs
Staphylococcus aureus [25] = assay: In vivo antibacterial activity against Staphylococcus aureus MTCC-96 infected in Balb/c mouse assessed as bacterial load by measuring CFU in spleen at 156.5 microM/Kg, iv for 7 days by CFU assay; format: functional, organism-based; details: time 7.0 day
Staphylococcus aureus [26] = assay: In vivo antibacterial activity against Staphylococcus aureus MTCC-96 infected in Balb/c mouse assessed as uniform distribution of hepatic lobules in liver tissue at 156.5 microM/Kg, iv for 7 days by hematoxylin and eosin staining based microscopic analysis; format: functional, organism-based; details: time 7.0 day
Lipid bilayer [27] = assay: as §1, with “anion” for “cation”, “ZnSO4” for “CsCl”; details: filed as opener; time 10.5 min

FC(F)(F)c1cc(NC(=S)Nc2cccc3ccc(-n4cnc5ccccc54)nc23)cc(C(F)(F)F)c1
Activity (Staphylococcus aureus [1]): Active | Activity (Lipid bilayer [2]): inactive | Activity (Staphylococcus aureus [3]): 46 CFU | Activity (A549): Non-Toxic | Activity (Lipid bilayer [4]): inactive | Activity (Lipid bilayer [5]): inactive | Activity (Lipid bilayer [6]): Active | Activity (Staphylococcus aureus [7]): Active | Activity (Staphylococcus aureus [8]): Active | Activity (Staphylococcus aureus [9]): Active | EC50 (Lipid bilayer [10]): 5.49 µM | MIC (Staphylococcus aureus [11]): 6.25 µM | Activity (Staphylococcus aureus [12]): Active | MIC (Staphylococcus aureus [13]): 3.13 µM (≈ 1.66 µg/mL) | Activity (Lipid bilayer [14]): Active | MIC (Staphylococcus aureus [15]): 0.47 µM | Activity (MCF-10A): Non-Toxic | Activity (Staphylococcus aureus [16]): Active | Activity (Lipid bilayer [17]): Active | Activity (HCT-116): Non-Toxic | Activity (Staphylococcus aureus [18]): Active | Activity (Lipid bilayer [19]): inactive | Activity (MDA-MB-231): Non-Toxic | Activity (Lipid bilayer [20]): Active | MIC (Staphylococcus aureus [21]): 2 µM | Activity (Staphylococcus aureus [22]): Active | Activity (Staphylococcus aureus [23]): inactive | Activity (Staphylococcus aureus [24]): Active | Activity (Staphylococcus aureus [25]): Active | Activity (Staphylococcus aureus [26]): Active | Activity (Lipid bilayer [27]): Active

— ChEMBL document CHEMBL5360614, “Quinoline Thiourea-Based Zinc Ionophores with Antibacterial Activity” (J Med Chem, 2023)
